From patent US20230085307A1, “PYRIDAZINONE COMPOUND AND HERBICIDE” (NISSAN CHEMICAL CORPORATION, priority 2019, published 2023)

Key:
persian speedwell [1] = test: Test Example 4: herbicidal effect by soil treatment (Table 19, symbol R); assay type: in vivo, Persian speedwell (Veronica persica)
Method in brief: (§1)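 Step 1: sow seeds in sterilized diluvial soil, cover ~1.5 cm. Step 2: spray diluted emulsion onto soil surface at predetermined rate. Step 3: greenhouse, 25–30° C, three weeks. Step 4: grade effect on each plant by earlier criteria.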

Italian ryegrass [2] = test: Test Example 4: herbicidal effect by soil treatment (Table 19, symbol K); assay type: in vivo, Italian ryegrass (Lolium multiflorum)
Method in brief: as §1

velvetleaf [3] = test: Test Example 5: herbicidal effect by foliage application, plastic box (Table 20, symbol M); assay type: in vivo, velvetleaf (Abutilon theophrasti); conditions: foliage application, 320 g/ha
Method in brief: (§2)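 Foliar spray test: emulsion formulation diluted in water to a set application rate, sprayed onto 14-day-old plants raised in diluvial soil at 25° C to 30° C under glass. Both herbicidal effect and crop effect rated visually three weeks later.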

green foxtail [4] = test: Test Example 4: herbicidal effect by soil treatment (Table 19, symbol G); assay type: in vivo, green foxtail (Setaria viridis)
Method in brief: as §1

blackgrass [5] = test: Test Example 5: herbicidal effect by foliage application, plastic box (Table 20, symbol J); assay type: in vivo, blackgrass (Alopecurus myosuroides); conditions: foliage application, 320 g/ha
Method in brief: as §2

barnyard grass [6] = test: Test Example 4: herbicidal effect by soil treatment (Table 19, symbol H); assay type: in vivo, barnyard grass (Echinochloa crus-galli)
Method in brief: as §1

Italian ryegrass [7] = test: Test Example 5: herbicidal effect by foliage application, plastic box (Table 20, symbol K); assay type: in vivo, Italian ryegrass (Lolium multiflorum); conditions: foliage application, 320 g/ha
Method in brief: as §2

chickweed [8] = test: Test Example 5: herbicidal effect by foliage application, plastic box (Table 20, symbol P); assay type: in vivo, common chickweed (Stellaria media); conditions: foliage application, 320 g/ha, evaluated three weeks after application
Method in brief: as §2

green foxtail [9] = test: Test Example 5: herbicidal effect by foliage application, plastic box (Table 20, symbol G); assay type: in vivo, green foxtail (Setaria viridis); conditions: foliage application, 320 g/ha
Method in brief: as §2

southern crabgrass [10] = test: Test Example 5: herbicidal effect by foliage application, plastic box (Table 20, symbol F); assay type: in vivo, southern crabgrass (Digitaria ciliaris); conditions: foliage application, 320 g/ha
Method in brief: as §2

persian speedwell [11] = test: Test Example 5: herbicidal effect by foliage application, plastic box (Table 20, symbol R); assay type: in vivo, Persian speedwell (Veronica persica); conditions: foliage application, 320 g/ha
Method in brief: as §2

lambsquarters [12] = test: Test Example 5: herbicidal effect by foliage application, plastic box (Table 20, symbol O); assay type: in vivo, lambsquarters (Chenopodium album); conditions: foliage application, 320 g/ha
Method in brief: as §2

rice flat sedge = test: Test Example 3: herbicidal effect by foliage application, Wagner pot (Table 18, symbol E); assay type: in vivo, rice flat sedge (Cyperus iria)
Method in brief: (§3)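 Plants were sown in alluvial soil held under 0.1–0.5 cm standing water and grown 14 days in a greenhouse at 25–30 °C. An emulsifiable formulation, water-diluted to the set dose, was then sprayed onto the foliage, and effects were scored three weeks later using previously defined criteria.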

barnyard grass [13] = test: Test Example 3: herbicidal effect by foliage application, Wagner pot (Table 18, symbol H); assay type: in vivo, barnyard grass (Echinochloa crus-galli)
Method in brief: as §3

wild oat [14] = test: Test Example 4: herbicidal effect by soil treatment (Table 19, symbol I); assay type: in vivo, wild oat (Avena fatua)
Method in brief: as §1

velvetleaf [15] = test: Test Example 4: herbicidal effect by soil treatment (Table 19, symbol M); assay type: in vivo, velvetleaf (Abutilon theophrasti)
Method in brief: as §1

chickweed [16] = test: Test Example 4: herbicidal effect by soil treatment (Table 19, symbol P); assay type: in vivo, common chickweed (Stellaria media)
Method in brief: as §1

blackgrass [17] = test: Test Example 4: herbicidal effect by soil treatment (Table 19, symbol J); assay type: in vivo, blackgrass (Alopecurus myosuroides)
Method in brief: as §1

wild oat [18] = test: Test Example 5: herbicidal effect by foliage application, plastic box (Table 20, symbol I); assay type: in vivo, wild oat (Avena fatua); conditions: foliage application, 320 g/ha
Method in brief: as §2

southern crabgrass [19] = test: Test Example 4: herbicidal effect by soil treatment (Table 19, symbol F); assay type: in vivo, southern crabgrass (Digitaria ciliaris)
Method in brief: as §1

windgrass = test: Test Example 5: herbicidal effect by foliage application, plastic box (Table 20, symbol L); assay type: in vivo, windgrass (Apera spica-venti); conditions: foliage application, 320 g/ha
Method in brief: as §2

redroot pigweed [20] = test: Test Example 5: herbicidal effect by foliage application, plastic box (Table 20, symbol N); assay type: in vivo, redroot pigweed (Amaranthus retroflexus); conditions: foliage application, 320 g/ha, evaluated three weeks after application
Method in brief: as §2

lambsquarters [21] = test: Test Example 4: herbicidal effect by soil treatment (Table 19, symbol O); assay type: in vivo, lambsquarters (Chenopodium album)
Method in brief: as §1

Chinese sprangletop = test: Test Example 3: herbicidal effect by foliage application, Wagner pot (Table 18, symbol D); assay type: in vivo, chinese sprangletop (Leptochloa chinensis)
Method in brief: as §3

barnyard grass [22] = test: Test Example 5: herbicidal effect by foliage application, plastic box (Table 20, symbol H); assay type: in vivo, barnyard grass (Echinochloa crus-galli); conditions: foliage application, 320 g/ha
Method in brief: as §2

redroot pigweed [23] = test: Test Example 4: herbicidal effect by soil treatment (Table 19, symbol N); assay type: in vivo, redroot pigweed (Amaranthus retroflexus); conditions: 320 g/ha
Method in brief: as §1

[24] = amount of applied herbicide 320 g/ha
[25] = evaluated three weeks after application

CCCC(=O)Oc1c(C)nn(C)c(=O)c1-c1c(-c2ccccc2)sc2ccc(C)cc12 [2-133]
R: persian speedwell, herbicidal effect rating (persian speedwell [1]; [24]): 0 (Herbicidal rate of 5% or less (almost no effect))
K: Italian ryegrass, herbicidal effect rating (Italian ryegrass [2]; [24]): 0 (Herbicidal rate of 5% or less (almost no effect))
herbicidal effect on M: velvetleaf (velvetleaf [3]; [25]): 5 (Herbicidal rate of 90% or more (almost completely withered))
G: green foxtail, herbicidal effect rating (green foxtail [4]; [24]): 0 (Herbicidal rate of 5% or less (almost no effect))
herbicidal effect on J: blackgrass (blackgrass [5]; [25]): 0 (Herbicidal rate of 5% or less (almost no effect))
H: barnyard grass, herbicidal effect rating (barnyard grass [6]; [24]): 0 (Herbicidal rate of 5% or less (almost no effect))
herbicidal effect on K: Italian ryegrass (Italian ryegrass [7]; [25]): 3 (Herbicidal rate of 40% or more and less than 70%)
herbicidal effect on P: chickweed (chickweed [8]): 5 (Herbicidal rate of 90% or more (almost completely withered))
herbicidal effect on G: green foxtail (green foxtail [9]; [25]): 2 (Herbicidal rate of 20% or more and less than 40%)
herbicidal effect on F: southern crabgrass (southern crabgrass [10]; [25]): 0 (Herbicidal rate of 5% or less (almost no effect))
herbicidal effect on R: persian speedwell (persian speedwell [11]; [25]): 2 (Herbicidal rate of 20% or more and less than 40%)
herbicidal effect on O: lambsquarters (lambsquarters [12]; [25]): 4 (Herbicidal rate of 70% or more and less than 90%)
herbicidal effect on E: rice flat sedge (rice flat sedge; [24]): 5 (Herbicidal rate of 90% or more (almost completely withered))
herbicidal effect on H: barnyard grass (barnyard grass [13]; [24]): 0 (Herbicidal rate of 5% or less (almost no effect))
I: wild oat, herbicidal effect rating (wild oat [14]; [24]): 0 (Herbicidal rate of 5% or less (almost no effect))
M: velvetleaf, herbicidal effect rating (velvetleaf [15]; [24]): 0 (Herbicidal rate of 5% or less (almost no effect))
P: chickweed, herbicidal effect rating (chickweed [16]; [24]): 5 (Herbicidal rate of 90% or more (almost completely withered))
J: blackgrass, herbicidal effect rating (blackgrass [17]; [24]): 0 (Herbicidal rate of 5% or less (almost no effect))
herbicidal effect on I: wild oat (wild oat [18]; [25]): 0 (Herbicidal rate of 5% or less (almost no effect))
F: southern crabgrass, herbicidal effect rating (southern crabgrass [19]; [24]): 0 (Herbicidal rate of 5% or less (almost no effect))
herbicidal effect on L: windgrass (windgrass; [25]): 0 (Herbicidal rate of 5% or less (almost no effect))
herbicidal effect on N: redroot pigweed (redroot pigweed [20]): 5 (Herbicidal rate of 90% or more (almost completely withered))
O: lambsquarters, herbicidal effect rating (lambsquarters [21]; [24]): 5 (Herbicidal rate of 90% or more (almost completely withered))
herbicidal effect on D: Chinese sprangletop (Chinese sprangletop; [24]): 0 (Herbicidal rate of 5% or less (almost no effect))
herbicidal effect on H: barnyard grass (barnyard grass [22]; [25]): 0 (Herbicidal rate of 5% or less (almost no effect))

COCCC(=O)Oc1c(C)nn(C)c(=O)c1-c1c(-c2ccc(F)cc2)sc2ccc(F)cc12 [2-003]
herbicidal effect rating, R: persian speedwell (persian speedwell [1]; 320 g/ha): 4 (Herbicidal rate of 70% or more and less than 90%)
herbicidal effect rating, K: Italian ryegrass (Italian ryegrass [2]; 320 g/ha): 5 (Herbicidal rate of 90% or more (almost completely withered))
effect on velvetleaf (M) (velvetleaf [3]; 3 weeks after application): 5 (Herbicidal rate of 90% or more (almost completely withered))
herbicidal effect rating, G: green foxtail (green foxtail [4]; 320 g/ha): 5 (Herbicidal rate of 90% or more (almost completely withered))
effect on blackgrass (J) (blackgrass [5]; 3 weeks after application): 4 (Herbicidal rate of 70% or more and less than 90%)
herbicidal effect rating, H: barnyard grass (barnyard grass [6]; 320 g/ha): 5 (Herbicidal rate of 90% or more (almost completely withered))
effect on Italian ryegrass (K) (Italian ryegrass [7]; 3 weeks after application): 4 (Herbicidal rate of 70% or more and less than 90%)
effect on green foxtail (G) (green foxtail [9]; 3 weeks after application): 5 (Herbicidal rate of 90% or more (almost completely withered))
effect on southern crabgrass (F) (southern crabgrass [10]; 3 weeks after application): 5 (Herbicidal rate of 90% or more (almost completely withered))
effect on persian speedwell (R) (persian speedwell [11]; 3 weeks after application): 5 (Herbicidal rate of 90% or more (almost completely withered))
effect on lambsquarters (O) (lambsquarters [12]; 3 weeks after application): 5 (Herbicidal rate of 90% or more (almost completely withered))
herbicidal effect on E (rice flat sedge), rating 0-5 (rice flat sedge; 320 g/ha): 5 (Herbicidal rate of 90% or more (almost completely withered))
herbicidal effect on H (barnyard grass), rating 0-5 (barnyard grass [13]; 320 g/ha): 5 (Herbicidal rate of 90% or more (almost completely withered))
herbicidal effect rating, I: wild oat (wild oat [14]; 320 g/ha): 0 (Herbicidal rate of 5% or less (almost no effect))
herbicidal effect rating, M: velvetleaf (velvetleaf [15]; 320 g/ha): 5 (Herbicidal rate of 90% or more (almost completely withered))
herbicidal effect rating, N: redroot pigweed (redroot pigweed [23]): 5 (Herbicidal rate of 90% or more (almost completely withered))
herbicidal effect rating, P: chickweed (chickweed [16]; 320 g/ha): 3 (Herbicidal rate of 40% or more and less than 70%)
herbicidal effect rating, J: blackgrass (blackgrass [17]; 320 g/ha): 3 (Herbicidal rate of 40% or more and less than 70%)
effect on wild oat (I) (wild oat [18]; 3 weeks after application): 2 (Herbicidal rate of 20% or more and less than 40%)
herbicidal effect rating, F: southern crabgrass (southern crabgrass [19]; 320 g/ha): 5 (Herbicidal rate of 90% or more (almost completely withered))
effect on windgrass (L) (windgrass; 3 weeks after application): 4 (Herbicidal rate of 70% or more and less than 90%)
herbicidal effect rating, O: lambsquarters (lambsquarters [21]; 320 g/ha): 5 (Herbicidal rate of 90% or more (almost completely withered))
herbicidal effect on D (Chinese sprangletop), rating 0-5 (Chinese sprangletop; 320 g/ha): 3 (Herbicidal rate of 40% or more and less than 70%)
effect on barnyard grass (H) (barnyard grass [22]; 3 weeks after application): 5 (Herbicidal rate of 90% or more (almost completely withered))
